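Dose response: 5 concentrations. Exposure: 48 h. Format: 96-well plates. Endpoint: linear interpolation; highest concentration if not reached. TGI: total growth inhibition.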
Tests used:
Assay in all cases: inhibition of tumour cell growth, NCI panel, 48 h
[1] = tested on: 786-0 renal
[2] = tested on: A498 renal
[3] = tested on: A549 NSCLC
[4] = tested on: ACHN renal
[5] = tested on: BT-549 breast
[6] = tested on: CAKI-1 renal
[7] = tested on: CCRF-CEM leukemia
[8] = tested on: COLO 205 colon
[9] = tested on: DU-145 prostate
[10] = tested on: EKVX NSCLC
[11] = tested on: HCT-116 colon
[12] = tested on: HCT-15 colon
[13] = tested on: HL-60(TB) leukemia
[14] = tested on: HOP-62 NSCLC
[15] = tested on: HOP-92 NSCLC
[16] = tested on: HT29 colon
[17] = tested on: IGROV1 ovarian
[18] = tested on: K-562 leukemia
[19] = tested on: KM12 colon
[20] = tested on: LOX IMVI melanoma
[21] = tested on: M14 melanoma
[22] = tested on: MALME-3M melanoma
[23] = tested on: MCF7 breast
[24] = tested on: MDA-MB-231 breast
[25] = tested on: MDA-MB-435
[26] = tested on: MDA-N
[27] = tested on: MOLT-4 leukemia
[28] = tested on: NCI-H226 lung
[29] = tested on: NCI-H23 lung
[30] = tested on: NCI-H460 lung
[31] = tested on: NCI/ADR-RES ovarian
[32] = tested on: OVCAR-3 ovarian
[33] = tested on: OVCAR-4 ovarian
[34] = tested on: OVCAR-5 ovarian
[35] = tested on: OVCAR-8 ovarian
[36] = tested on: PC-3 prostate
[37] = tested on: RPMI-8226 leukemia
[38] = tested on: RXF 393 renal
[39] = tested on: SF-268 CNS
[40] = tested on: SF-295 CNS
[41] = tested on: SF-539 CNS
[42] = tested on: SK-MEL-2 melanoma
[43] = tested on: SK-MEL-28 melanoma
[44] = tested on: SK-MEL-5 melanoma
[45] = tested on: SK-OV-3 ovarian
[46] = tested on: SN12C renal
[47] = tested on: SNB-19 CNS
[48] = tested on: SNB-75 CNS
[49] = tested on: SW-620 colon
[50] = tested on: T-47D breast
[51] = tested on: TK-10 renal
[52] = tested on: U251 CNS
[53] = tested on: UACC-257 melanoma
[54] = tested on: UACC-62 melanoma
[55] = tested on: UO-31 renal
[56] = tested on: HCC-2998 colon
[57] = tested on: NCI-H522 lung
[58] = tested on: SR leukemia

Measured: TGI

CC(C)(C)c1cc(C(C)(C)C)c(SS(=O)(=O)O)c(O)c1O
94.5 µM: [42]
97.9 µM: [38]
37.4 µM: [41]
99.1 µM: [48]
0.219 µM: [27]
55.2 µM: [54]
not listed: [56] | [57] | [58]
> 100 µM: all other assays above

O=C1SS(=O)c2ccccc21 (centres undefined)
not listed: [38] | [39] | [50] | [51]
> 100 µM: all other assays above

From PubChem BioAssay (NCI)
